Like-named read-outs stand apart in the source and are kept apart here.
Assays:
[1] = molecular target: T1, alpha 2B receptor (Homo sapiens, UniProt P18089); experiment: Receptor Selection and Amplification technology (RSAT) assay, alpha 2B; type: cell-based; settings: for Alpha 2B intrinsic activity (relative efficacy): RSAT, number in parentheses, ratio of maximal effect to that of standard full agonist brimonidine (UK14304)
T1 construct: expressed in transfected cells; host or cells: NIH-3T3 cells
T1 sequence (P18089 1-450): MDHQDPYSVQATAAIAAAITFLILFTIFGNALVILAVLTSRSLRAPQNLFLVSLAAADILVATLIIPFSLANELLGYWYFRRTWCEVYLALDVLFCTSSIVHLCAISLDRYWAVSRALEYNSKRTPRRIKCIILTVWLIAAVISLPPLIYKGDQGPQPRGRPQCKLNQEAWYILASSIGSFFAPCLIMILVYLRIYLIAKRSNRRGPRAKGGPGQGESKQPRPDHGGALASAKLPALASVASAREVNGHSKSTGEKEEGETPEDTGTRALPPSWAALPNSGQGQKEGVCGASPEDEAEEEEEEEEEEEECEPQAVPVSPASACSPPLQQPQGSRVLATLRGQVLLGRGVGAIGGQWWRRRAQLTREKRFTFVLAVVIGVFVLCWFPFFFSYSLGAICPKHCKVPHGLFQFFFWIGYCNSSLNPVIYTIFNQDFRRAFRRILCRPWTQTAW
Method: (§1) The RSAT assay measures a receptor-mediated loss of contact inhibition that results in selective proliferation of receptor-containing cells in a mixed population of confluent cells. The increase in cell number is assessed with an appropriate transfected marker gene such as β-galactosidase, the activity of which can be easily measured in a 96-well format. Receptors that activate the G protein, Gq, elicit this response. Alpha 2 receptors, which normally couple to Gi, activate the RSAT response when coexpressed with a hybrid Gq protein that has a G; receptor recognition domain, called Gq/i5.
(§2) NIH-3T3 cells are plated at a density of 2×10^6 cells in 15 cm dishes and maintained in Dulbecco's modified Eagle's medium supplemented with 10% calf serum. One day later, cells are cotransfected by calcium phosphate precipitation with mammalian expression plasmids encoding p-SV-β-galactosidase (5-10 μg), receptor (1-2 μg) and G protein (1-2 μg). 40 μg salmon sperm DNA may also be included in the transfection mixture. Fresh media is added on the following day and 1-2 days later, cells are harvested and frozen in 50 assay aliquots. Cells are thawed and 100 μl added to 100 μl aliquots of various concentrations of drugs in triplicate in 96-well dishes. Incubations continue 72-96 hr at 37° C. After washing with phosphate-buffered saline, .E-backward.-galactosidase enzyme activity is determined by adding 200 μl of the chromogenic substrate (consisting of 3.5 mM o-nitrophenyl-beta-D-galactopyranoside and 0.5% nonidet P-40 in phosphate buffered saline), incubating overnight at 30° C. and measuring optical density at 420 nm. The absorbance is a measure of enzyme activity, which depends on cell number and reflects a receptor-mediated cell proliferation. The efficacy or intrinsic activity is calculated as a ratio of the maximal effect of the drug to the maximal effect of a standard full agonist for each receptor subtype. Brimonidine, also called UK14304, the chemical structure of which is shown below, is used as the standard agonist for the alpha 2A, alpha 2B and alpha 2C receptors.

[2] = molecular target: T2, alpha 2C receptor (Homo sapiens, UniProt P18825); experiment: Receptor Selection and Amplification technology (RSAT) assay, alpha 2C; type: cell-based; settings: for Alpha 2C intrinsic activity (relative efficacy): RSAT, number in parentheses, ratio of maximal effect to that of standard full agonist brimonidine (UK14304)
T2 construct: expressed in transfected cells; host or cells: NIH-3T3 cells
T2 sequence (P18825 1-462): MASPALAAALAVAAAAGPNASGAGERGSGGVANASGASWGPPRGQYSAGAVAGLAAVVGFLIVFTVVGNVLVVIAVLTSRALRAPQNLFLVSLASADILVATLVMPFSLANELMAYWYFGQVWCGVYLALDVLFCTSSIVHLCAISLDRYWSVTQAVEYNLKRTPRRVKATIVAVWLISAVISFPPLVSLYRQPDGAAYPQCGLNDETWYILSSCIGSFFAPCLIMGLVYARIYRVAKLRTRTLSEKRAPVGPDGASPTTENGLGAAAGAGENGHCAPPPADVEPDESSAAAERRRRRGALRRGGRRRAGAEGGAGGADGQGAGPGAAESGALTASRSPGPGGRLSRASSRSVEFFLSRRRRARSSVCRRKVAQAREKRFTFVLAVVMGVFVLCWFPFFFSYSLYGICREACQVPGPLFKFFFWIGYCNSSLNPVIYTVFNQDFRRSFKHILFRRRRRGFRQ
From the text: The compounds disclosed herein are agonists of alpha 2B/2C adrenergic receptors. […] 76, pp. 308-311 (incorporated herein by reference) and is also described below. Another reference pertinent to this assay is Conklin et al. (1993) Nature 363: 274-6, also incorporated herein by reference.
as §1, §2

[3] = RSAT in transfected NIH-3T3 cells, number outside parentheses, read-out: Alpha 2B potency (EC50)
[4] = RSAT in transfected NIH-3T3 cells, number outside parentheses, read-out: Alpha 2C potency (EC50)

Row | Structure (SMILES) | EC50 [1] [nM] | Alpha 2B intrinsic activity (relative efficacy) [1] | EC50 [2] [nM] | Alpha 2C intrinsic activity (relative efficacy) [2] | EC50 [1, 3] [nM] | EC50 [2, 4] [nM]
1 | Cc1ccccc1C(c1ccccc1)c1c[nH]cn1 (stereo not shown) | 55 | .99 | 1900 | .64 | – | –
2 | Fc1cccc(C(c2ccccc2)c2c[nH]cn2)c1 (stereo not shown) | 332 | 1.00 | – | No Data (.15) | – | –
3 | Cc1c(Cl)cccc1C(c1ccccc1)c1c[nH]cn1 (stereo not shown) | – | 1.35 | – | .35 | 18 | 411
4 | Fc1c(C(c2ccccc2)c2c[nH]cn2)cccc1C(F)(F)F (stereo not shown) | – | .89 | – | No Data (.12) | 21 | –
5 | Fc1c(Cl)cccc1C(c1ccccc1)c1c[nH]cn1 (stereo not shown) | – | .91 | – | No Data (.21) | 44 | –
6 | Clc1cccc(C(c2ccccc2)c2c[nH]cn2)c1Cl (stereo not shown) | – | 1.19 | – | .40 | 6.9 | 332
7 | Cc1cccc(C(c2ccccc2)c2c[nH]cn2)c1C (stereo not shown) | – | 1.23 | – | 1.02 | 1.8 | 91
8 | Fc1cccc(C(c2ccccc2)c2c[nH]cn2)c1F (stereo not shown) | – | 1.10 | – | No Data (.22) | 62 | –

— patent US8227499B2, “Substituted-aryl-(imidazole)-methyl)-phenyl compounds as subtype selective modulators of alpha 2B and/or alpha 2C adrenergic receptors” (Allergan, Inc., priority 2008, dated 2012)
